Source: patent US20020137929A1, “1 - (3-heterocyclylphenyl) isothiourea, -isourea, -guanidine and -amidine herbicidal agents” (Intellectual Property Department, BASF Aktiengesellschaft, priority 1998, published 2002)

What was measured:
ABUTH (Velvetleaf) = assay: Preemergence herbicidal evaluation; format: in vivo, Abutilon theophrasti; settings: rated 4-5 weeks after treatment
Outline: (§1)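 Seeds were mixed with potting soil and planted on about one inch of soil, then sprayed with test compound in aqueous acetone at about 0.0156 to 0.500 kg per hectare. Plants grew under standard greenhouse care and were visually rated 0-9 against untreated controls 4-5 weeks post-treatment.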

ZEAMX (Corn, Field) = assay: Preemergence herbicidal evaluation; format: in vivo, Zea mays; settings: rated 4-5 weeks after treatment
Outline: as §1

CASOB (Sicklepod) [1] = assay: Preemergence herbicidal evaluation; format: in vivo, Cassia obtusifolia; settings: rated 4-5 weeks after treatment
Outline: as §1

GALAP (Galium) = assay: Postemergence herbicidal evaluation; format: in vivo, Galium aparine; settings: for GALAP herbicidal rating: postemergence
Outline: (§2)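 Scores (0–9) reflect plant stand, vigor, malformation, size, chlorosis and general appearance relative to control, read 4 to 5 weeks after treatment and averaged where tests were repeated. Application: about 0.0156–0.500 kg/ha sprayed at 40 psi onto two-week seedlings.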

ECHCG (Barnyardgrass) = assay: Preemergence herbicidal evaluation; format: in vivo, Echinochloa crus-galli; settings: rated 4-5 weeks after treatment
Outline: as §1

CASOB (Sicklepod) [2] = assay: Postemergence herbicidal evaluation; format: in vivo, Cassia obtusifolia; settings: for CASOB herbicidal rating: postemergence
Outline: as §2

[3] = test system: GLXMAW (Soybean, Williams); assay: Preemergence herbicidal evaluation; format: in vivo, Glycine max, (L.) Merr. cv Williams; settings: rated 4-5 weeks after treatment
Outline: as §1

MOOVA (Monochoria) = assay: Preemergence weed control under flooded paddy conditions; format: in vivo, Monochoria vaginalis; settings: rated 3-4 weeks after treatment
Outline: (§3)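 Flooded-pot preemergence screen with silt loam and seeds in the upper 0.5 cm. Dose about 0.0313 to 0.500 kg/ha, delivered into flood water; visual 0-9 score after 3 to 4 weeks.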

[4] = test system: TRZAWR (Wheat, Winter, cv Riband); assay: Preemergence herbicidal evaluation; format: in vivo, Triticum aestivum; settings: rated 4-5 weeks after treatment
Outline: as §1

[5] = test system: IPOHE (Morningglory, Ivyleaf); assay: Preemergence herbicidal evaluation; format: in vivo, Ipomoea hederacea; settings: rated 4-5 weeks after treatment
Outline: as §1

AMBEL (Ragweed, Common) = assay: Postemergence herbicidal evaluation; format: in vivo, Ambrosia artemisifolia; settings: for AMBEL herbicidal rating: postemergence
Outline: as §2

[6] = test system: SAGPY (Arrowhead (Pygmaea)); assay: Preemergence weed control under flooded paddy conditions; format: in vivo, Sagittaria pygmaea; settings: rated 3-4 weeks after treatment
Outline: as §3

CYPIR (Rice Flatsedge) = assay: Postemergence weed control under flooded paddy conditions; format: in vivo, Cyperus iria; settings: postemergence weeds
Outline: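 Containers holding 3–5 cm weeds and rice at 1.5–2.5 leaves are flooded to 1.5–3 cm above soil. Compound in 50/50 v/v aqueous/acetone is then added directly to the water, about 0.0313–0.500 kg/ha. Plants are kept in the greenhouse and rated 0–9 visually at 3–4 weeks.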

[7] = test system: IPOHE (Morningglory, Ivyleaf); assay: Postemergence herbicidal evaluation; format: in vivo, Ipomoea hederacea; settings: for IPOHE herbicidal rating: postemergence
Outline: as §2

[8] = rate 0.1250 kg/ha, 3-4 weeks after treatment
[9] = rate 0.2500 kg/ha, 3-4 weeks after treatment

C#CCOC(=O)CC1SC(=Nc2cc(-n3c(=O)cc(C(F)(F)F)n(C)c3=O)c(F)cc2Cl)N(CC(=O)OCC)C1=O (stereo not drawn) [Compound 59, 2-{{2-Chloro-5-[3,6-dihydro-3-methyl-2,6-dioxo-4-(trifluoromethyl)-1(2H)-pyrimidinyl]-4-fluorophenyl}imino}-4-oxo-3,5-thiazolidinediacetic acid, 3-ethyl (2-propynyl) ester]
9.0: Preemergence herbicidal rating ABUTH (ABUTH (Velvetleaf); rate 0.1250 kg/ha) | Preemergence herbicidal rating ABUTH (ABUTH (Velvetleaf); rate 0.2500 kg/ha) | Preemergence herbicidal rating ABUTH (ABUTH (Velvetleaf); rate 0.5000 kg/ha) | Preemergence herbicidal rating CASOB (CASOB (Sicklepod) [1]; rate 0.5000 kg/ha) | Postemergence herbicidal rating GALAP (GALAP (Galium); Rate 0.0630 kg/ha) | Preemergence herbicidal rating ECHCG (ECHCG (Barnyardgrass); rate 0.5000 kg/ha) | Postemergence herbicidal rating CASOB (CASOB (Sicklepod) [2]; Rate 0.0315 kg/ha) | Postemergence herbicidal rating CASOB (CASOB (Sicklepod) [2]; Rate 0.0630 kg/ha) | Preemergence herbicidal rating GLXMAW ([3]; rate 0.5000 kg/ha) | MOOVA herbicidal effect rating (MOOVA (Monochoria); 0.2500 kg/ha) | Preemergence herbicidal rating IPOHE ([5]; rate 0.1250 kg/ha) | Preemergence herbicidal rating IPOHE ([5]; rate 0.2500 kg/ha) | Preemergence herbicidal rating IPOHE ([5]; rate 0.5000 kg/ha) | Postemergence herbicidal rating AMBEL (AMBEL (Ragweed, Common); Rate 0.0158 kg/ha) | Postemergence herbicidal rating AMBEL (AMBEL (Ragweed, Common); Rate 0.0315 kg/ha) | Postemergence herbicidal rating AMBEL (AMBEL (Ragweed, Common); Rate 0.0630 kg/ha) | Herbicidal rating CYPIR (CYPIR (Rice Flatsedge); [9]) | Postemergence herbicidal rating IPOHE ([7]; Rate 0.0158 kg/ha) | Postemergence herbicidal rating IPOHE ([7]; Rate 0.0315 kg/ha) | Postemergence herbicidal rating IPOHE ([7]; Rate 0.0630 kg/ha)
1.0: Preemergence herbicidal rating ZEAMX (ZEAMX (Corn, Field); rate 0.0156 kg/ha) | Preemergence herbicidal rating GLXMAW ([3]; rate 0.0156 kg/ha) | Preemergence herbicidal rating GLXMAW ([3]; rate 0.0625 kg/ha) | Preemergence herbicidal rating IPOHE ([5]; rate 0.0156 kg/ha)
8.5: Preemergence herbicidal rating ABUTH (ABUTH (Velvetleaf); rate 0.0625 kg/ha) | Preemergence herbicidal rating IPOHE ([5]; rate 0.0625 kg/ha)
2.0: Preemergence herbicidal rating ABUTH (ABUTH (Velvetleaf); rate 0.0156 kg/ha) | Preemergence herbicidal rating CASOB (CASOB (Sicklepod) [1]; rate 0.0625 kg/ha) | Preemergence herbicidal rating ECHCG (ECHCG (Barnyardgrass); rate 0.1250 kg/ha) | Preemergence herbicidal rating TRZAWR ([4]; rate 0.1250 kg/ha) | Preemergence herbicidal rating TRZAWR ([4]; rate 0.2500 kg/ha)
0.0: Preemergence herbicidal rating CASOB (CASOB (Sicklepod) [1]; rate 0.0156 kg/ha) | Preemergence herbicidal rating CASOB (CASOB (Sicklepod) [1]; rate 0.0313 kg/ha) | Preemergence herbicidal rating ECHCG (ECHCG (Barnyardgrass); rate 0.0156 kg/ha) | Preemergence herbicidal rating ECHCG (ECHCG (Barnyardgrass); rate 0.0313 kg/ha) | MOOVA herbicidal effect rating (MOOVA (Monochoria); 0.0625 kg/ha) | MOOVA herbicidal effect rating (MOOVA (Monochoria); 0.1250 kg/ha) | Preemergence herbicidal rating TRZAWR ([4]; rate 0.0156 kg/ha) | Preemergence herbicidal rating TRZAWR ([4]; rate 0.0313 kg/ha) | Preemergence herbicidal rating TRZAWR ([4]; rate 0.0625 kg/ha) | SAGPY herbicidal effect rating ([6]; 0.0625 kg/ha) | SAGPY herbicidal effect rating ([6]; 0.1250 kg/ha) | Herbicidal rating CYPIR (CYPIR (Rice Flatsedge); Rate 0.0625 kg/ha, rated 3 to 4 weeks after treatment) | Herbicidal rating CYPIR (CYPIR (Rice Flatsedge); [8])
4.0: Preemergence herbicidal rating GLXMAW ([3]; rate 0.1250 kg/ha) | Preemergence herbicidal rating IPOHE ([5]; rate 0.0313 kg/ha)
3.5: Preemergence herbicidal rating ZEAMX (ZEAMX (Corn, Field); rate 0.2500 kg/ha)
1.5: Preemergence herbicidal rating ZEAMX (ZEAMX (Corn, Field); rate 0.0625 kg/ha)
6.0: Preemergence herbicidal rating ABUTH (ABUTH (Velvetleaf); rate 0.0313 kg/ha) | Preemergence herbicidal rating ZEAMX (ZEAMX (Corn, Field); rate 0.5000 kg/ha) | Postemergence herbicidal rating GALAP (GALAP (Galium); Rate 0.0158 kg/ha) | Postemergence herbicidal rating GALAP (GALAP (Galium); Rate 0.0315 kg/ha) | Preemergence herbicidal rating ECHCG (ECHCG (Barnyardgrass); rate 0.2500 kg/ha)
0.5: Preemergence herbicidal rating ZEAMX (ZEAMX (Corn, Field); rate 0.0313 kg/ha) | Preemergence herbicidal rating ECHCG (ECHCG (Barnyardgrass); rate 0.0625 kg/ha) | Preemergence herbicidal rating GLXMAW ([3]; rate 0.0313 kg/ha)
7.0: Preemergence herbicidal rating CASOB (CASOB (Sicklepod) [1]; rate 0.1250 kg/ha) | Preemergence herbicidal rating GLXMAW ([3]; rate 0.2500 kg/ha)
3.0: Preemergence herbicidal rating ZEAMX (ZEAMX (Corn, Field); rate 0.1250 kg/ha) | Postemergence herbicidal rating CASOB (CASOB (Sicklepod) [2]; Rate 0.0158 kg/ha) | SAGPY herbicidal effect rating ([6]; 0.2500 kg/ha)
7.5: Preemergence herbicidal rating CASOB (CASOB (Sicklepod) [1]; rate 0.2500 kg/ha)

C=CCN1C(=O)CSC1=Nc1cc(-n2c(=O)cc(C(F)(F)F)n(C)c2=O)c(F)cc1Cl [Compound 27]
7.0: Preemergence herbicidal rating ABUTH (ABUTH (Velvetleaf); rate 0.0156 kg/ha) | Preemergence herbicidal rating ZEAMX (ZEAMX (Corn, Field); rate 0.0313 kg/ha) | Preemergence herbicidal rating GLXMAW ([3]; rate 0.2500 kg/ha) | Preemergence herbicidal rating TRZAWR ([4]; rate 0.1250 kg/ha) | AMBEL herbicidal rating (AMBEL (Ragweed, Common); rate 0.0630 kg/ha)
9.0: Preemergence herbicidal rating ABUTH (ABUTH (Velvetleaf); rate 0.0313 kg/ha) | Preemergence herbicidal rating ABUTH (ABUTH (Velvetleaf); rate 0.0625 kg/ha) | Preemergence herbicidal rating ABUTH (ABUTH (Velvetleaf); rate 0.1250 kg/ha) | Preemergence herbicidal rating ABUTH (ABUTH (Velvetleaf); rate 0.2500 kg/ha) | Preemergence herbicidal rating ZEAMX (ZEAMX (Corn, Field); rate 0.1250 kg/ha) | Preemergence herbicidal rating ZEAMX (ZEAMX (Corn, Field); rate 0.2500 kg/ha) | Preemergence herbicidal rating ECHCG (ECHCG (Barnyardgrass); rate 0.0625 kg/ha) | Preemergence herbicidal rating ECHCG (ECHCG (Barnyardgrass); rate 0.1250 kg/ha) | Preemergence herbicidal rating ECHCG (ECHCG (Barnyardgrass); rate 0.2500 kg/ha) | Preemergence herbicidal rating GLXMAW ([3]; rate 0.0625 kg/ha) | Preemergence herbicidal rating GLXMAW ([3]; rate 0.1250 kg/ha) | Herbicidal rating MOOVA (MOOVA (Monochoria); 0.0313 kg/ha) | Herbicidal rating MOOVA (MOOVA (Monochoria); 0.0625 kg/ha) | Herbicidal rating MOOVA (MOOVA (Monochoria); 0.1250 kg/ha) | Herbicidal rating MOOVA (MOOVA (Monochoria); 0.2500 kg/ha) | Preemergence herbicidal rating TRZAWR ([4]; rate 0.2500 kg/ha) | Preemergence herbicidal rating IPOHE ([5]; rate 0.1250 kg/ha) | Preemergence herbicidal rating IPOHE ([5]; rate 0.2500 kg/ha) | Herbicidal rating CYPIR (CYPIR (Rice Flatsedge); [9]) | IPOHE herbicidal rating ([7]; rate 0.0158 kg/ha) | IPOHE herbicidal rating ([7]; rate 0.0315 kg/ha) | IPOHE herbicidal rating ([7]; rate 0.0630 kg/ha)
0.0: Preemergence herbicidal rating ZEAMX (ZEAMX (Corn, Field); rate 0.0156 kg/ha) | Preemergence herbicidal rating CASOB (CASOB (Sicklepod) [1]; rate 0.0156 kg/ha) | Preemergence herbicidal rating CASOB (CASOB (Sicklepod) [1]; rate 0.0313 kg/ha) | Preemergence herbicidal rating CASOB (CASOB (Sicklepod) [1]; rate 0.0625 kg/ha) | Preemergence herbicidal rating CASOB (CASOB (Sicklepod) [1]; rate 0.1250 kg/ha) | Preemergence herbicidal rating CASOB (CASOB (Sicklepod) [1]; rate 0.2500 kg/ha) | Preemergence herbicidal rating ECHCG (ECHCG (Barnyardgrass); rate 0.0156 kg/ha) | Preemergence herbicidal rating GLXMAW ([3]; rate 0.0156 kg/ha) | Preemergence herbicidal rating GLXMAW ([3]; rate 0.0313 kg/ha) | Preemergence herbicidal rating TRZAWR ([4]; rate 0.0156 kg/ha) | Preemergence herbicidal rating IPOHE ([5]; rate 0.0156 kg/ha) | Preemergence herbicidal rating IPOHE ([5]; rate 0.0313 kg/ha) | Herbicidal rating SAGPY ([6]; 0.0313 kg/ha) | Herbicidal rating SAGPY ([6]; 0.0625 kg/ha)
8.0: Preemergence herbicidal rating ZEAMX (ZEAMX (Corn, Field); rate 0.0625 kg/ha) | Preemergence herbicidal rating ECHCG (ECHCG (Barnyardgrass); rate 0.0313 kg/ha) | Preemergence herbicidal rating IPOHE ([5]; rate 0.0625 kg/ha)
6.0: Herbicidal rating CYPIR (CYPIR (Rice Flatsedge); [8])
4.0: GALAP herbicidal rating (GALAP (Galium); rate 0.0315 kg/ha) | GALAP herbicidal rating (GALAP (Galium); rate 0.0630 kg/ha) | AMBEL herbicidal rating (AMBEL (Ragweed, Common); rate 0.0158 kg/ha) | Herbicidal rating SAGPY ([6]; 0.1250 kg/ha) | Herbicidal rating SAGPY ([6]; 0.2500 kg/ha) | Herbicidal rating CYPIR (CYPIR (Rice Flatsedge); rate 0.0625 kg/ha, 3-4 weeks after treatment)
1.0: GALAP herbicidal rating (GALAP (Galium); rate 0.0158 kg/ha) | CASOB herbicidal rating (CASOB (Sicklepod) [2]; rate 0.0158 kg/ha) | CASOB herbicidal rating (CASOB (Sicklepod) [2]; rate 0.0315 kg/ha) | CASOB herbicidal rating (CASOB (Sicklepod) [2]; rate 0.0630 kg/ha)
5.0: AMBEL herbicidal rating (AMBEL (Ragweed, Common); rate 0.0315 kg/ha)
3.0: Preemergence herbicidal rating TRZAWR ([4]; rate 0.0625 kg/ha) | Herbicidal rating CYPIR (CYPIR (Rice Flatsedge); rate 0.0313 kg/ha, 3-4 weeks after treatment)
